Test results published in ChEMBL document CHEMBL2150920, “Discovery of a potent and selective small molecule hGPR91 antagonist” (Bioorg Med Chem Lett, 2011).
Active and inactive are the calls of the source. No cut-off for these calls is given here.

Assays:
Liver microsomes = test: Intrinsic clearance in rat liver microsomes preincubated for 5 mins before addition of NADPH measured after 30 mins by LC/MS/MS analysis; assay type: ADME, Microsome; details: 0.5 h
[1] = molecular target: T1, Succinate receptor 1 (Homo sapiens) (UniProt Q9BXA5); test: Antagonist activity at human GPR91 receptor expressed in CHO-K1 cells co-expressing Galpha and Gqi5 G-protein assessed as inhibition of succinate-induced increase in intracellular calcium level at 10 uM by FLIPR assay; assay type: functional, cell-based
T1 sequence (whole entry): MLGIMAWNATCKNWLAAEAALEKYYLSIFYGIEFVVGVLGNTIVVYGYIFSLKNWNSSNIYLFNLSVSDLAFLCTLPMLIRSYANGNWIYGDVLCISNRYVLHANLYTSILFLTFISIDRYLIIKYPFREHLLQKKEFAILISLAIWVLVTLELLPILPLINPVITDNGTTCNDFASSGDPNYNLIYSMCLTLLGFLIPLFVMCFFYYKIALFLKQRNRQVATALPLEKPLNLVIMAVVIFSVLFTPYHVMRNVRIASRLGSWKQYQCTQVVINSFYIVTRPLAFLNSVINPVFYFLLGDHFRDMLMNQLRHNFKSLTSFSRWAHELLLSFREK

Succinate receptor 1 [2] = molecular target: T2, Succinate receptor 1 (Homo sapiens, UniProt Q9BXA5); test: Antagonist activity at human GPR91 receptor expressed in CHO-K1 cells co-expressing Galpha and Gqi5 G-protein assessed as inhibition of succinate-induced increase in intracellular calcium level by FLIPR assay; assay type: functional, cell-based
T2 sequence (Q9BXA5 whole entry): T1 sequence (whole entry)

B1 bradykinin receptor = molecular target: T3, B1 bradykinin receptor (Homo sapiens, UniProt P46663); test: Antagonist activity at human bradykinin B1 receptor expressed in […] cells assessed as inhibition of calcium flux by FLIPR assay; assay type: functional, cell-based
T3 sequence (P46663 whole entry): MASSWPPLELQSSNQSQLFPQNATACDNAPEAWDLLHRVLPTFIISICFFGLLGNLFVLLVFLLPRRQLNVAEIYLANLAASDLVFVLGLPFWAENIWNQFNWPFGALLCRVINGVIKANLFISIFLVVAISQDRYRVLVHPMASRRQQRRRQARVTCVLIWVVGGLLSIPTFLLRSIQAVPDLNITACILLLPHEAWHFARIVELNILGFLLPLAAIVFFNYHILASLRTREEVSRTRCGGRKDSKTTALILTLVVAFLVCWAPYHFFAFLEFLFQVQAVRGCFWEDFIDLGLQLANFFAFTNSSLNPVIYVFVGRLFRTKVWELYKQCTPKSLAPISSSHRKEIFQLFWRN

Succinate receptor 1 [3] = molecular target: T4, Succinate receptor 1 (Rattus norvegicus, UniProt Q6IYF9); test: Antagonist activity at rat GPR91 receptor expressed in CHO-K1 cells co-expressing Galpha and Gqi5 G-protein assessed as inhibition of succinate-induced increase in intracellular calcium level by FLIPR assay; assay type: functional, cell-based
T4 sequence (Q6IYF9 whole entry): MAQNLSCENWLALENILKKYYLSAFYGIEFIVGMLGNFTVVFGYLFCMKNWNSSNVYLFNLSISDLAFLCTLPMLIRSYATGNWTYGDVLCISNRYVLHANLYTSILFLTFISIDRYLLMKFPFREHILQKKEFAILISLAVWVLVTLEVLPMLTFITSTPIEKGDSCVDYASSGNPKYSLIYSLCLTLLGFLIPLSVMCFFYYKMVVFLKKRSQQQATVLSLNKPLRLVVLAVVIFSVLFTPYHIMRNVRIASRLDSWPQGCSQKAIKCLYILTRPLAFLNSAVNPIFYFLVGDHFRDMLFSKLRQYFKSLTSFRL

[4] = Cmax in Wistar rat at 5 mg/kg, iv by LC/MS/MS analysis; assay type: ADME, organism-based; parameters: dose 5 mg/kg, route intravenous; details: in vivo
[5] = AUC (0 to 8 hrs) in Wistar rat plasma at 50 mg/kg, ip; assay type: ADME, organism-based; parameters: time < 8 hr, dose 50 mg/kg, route intraperitoneal
[6] = Tmax in Wistar rat at 50 mg/kg, ip; assay type: ADME, organism-based; parameters: dose 50 mg/kg, route intraperitoneal; details: in vivo
[7] = Cmax in Wistar rat at 50 mg/kg, ip by LC/MS/MS analysis; assay type: ADME, organism-based; parameters: dose 50 mg/kg, route intraperitoneal; details: in vivo
[8] = Plasma clearance in Wistar rat at 5 mg/kg, iv; assay type: ADME, organism-based; parameters: dose 5 mg/kg, route intravenous
[9] = Volume of distribution at steady state in Wistar rat at 5 mg/kg, iv; assay type: ADME, organism-based; parameters: dose 5 mg/kg, route intravenous; details: in vivo, read-out: Vdss
[10] = molecular target: 2-oxoglutarate receptor 1 (Homo sapiens, UniProt Q96P68); test: Antagonist activity at human GPR99 receptor expressed in CHO-K1 cells co-expressing Galpha and Gqi5 G-protein assessed as inhibition of succinate-induced increase in intracellular calcium level at by FLIPR assay; assay type: functional, cell-based
2-oxoglutarate receptor 1, sequence (Q96P68 whole entry, looked up): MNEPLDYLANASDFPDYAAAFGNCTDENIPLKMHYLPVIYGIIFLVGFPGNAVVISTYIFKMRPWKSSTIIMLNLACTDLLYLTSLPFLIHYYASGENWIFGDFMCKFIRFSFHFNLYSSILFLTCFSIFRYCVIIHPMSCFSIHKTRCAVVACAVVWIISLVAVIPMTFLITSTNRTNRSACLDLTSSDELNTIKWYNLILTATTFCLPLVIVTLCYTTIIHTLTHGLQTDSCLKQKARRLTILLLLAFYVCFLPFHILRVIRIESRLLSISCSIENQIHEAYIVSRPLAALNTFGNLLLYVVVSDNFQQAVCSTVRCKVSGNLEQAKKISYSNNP

[11] = Terminal half life in Wistar rat at 5 mg/kg, iv; assay type: ADME, organism-based; parameters: dose 5 mg/kg, route intravenous; details: in vivo, read-out: beta t1/2 (converted)
[12] = Plasma concentration in Wistar rat plasma at 50 mg/kg, ip at 8 hrs; assay type: ADME, organism-based; parameters: dose 50 mg/kg, route intraperitoneal

Structure (SMILES): O=C(CCCc1ccc2cccnc2n1)NCc1ccc(-c2cccc(CO)c2)cc1
- Intrinsic clearance (Liver microsomes): 0.1 nmol/min/mg
- inhibition [1]: inactive

Structure (SMILES): FC(F)(F)c1ccc(-c2nnc(CCCCc3ccc4cccnc4n3)o2)cc1C(F)(F)F
- Intrinsic clearance (Liver microsomes): 0.3 nmol/min/mg
- IC50 (Succinate receptor 1 [2]): 170 nM

Structure (SMILES): NC(C(=O)NCc1ccc(-c2ccc(F)c(C(F)(F)F)c2)cc1)c1ccc(-c2ccc3cccnc3n2)cc1 (centres undefined)
- Intrinsic clearance (Liver microsomes): 0.15 nmol/min/mg
- IC50 (Succinate receptor 1 [2]): 330 nM

Structure (SMILES): O=C(CCCc1ccc2cccnc2n1)NCc1ccc(-c2cccc(C(=O)O)c2)cc1
- Intrinsic clearance (Liver microsomes): 0.03 nmol/min/mg
- inhibition [1]: inactive

Structure (SMILES): COC(=O)c1c(F)cccc1-c1ccc(CNC(=O)CCCc2ccc3cccnc3n2)c(F)c1
- Intrinsic clearance (Liver microsomes): 0.7 nmol/min/mg
- IC50 (Succinate receptor 1 [2]): 800 nM
- IC50 (B1 bradykinin receptor): 2500 nM

Structure (SMILES): CC(C)(C(=O)NCc1ccc(-c2ccc(F)c(C(F)(F)F)c2)cc1)c1ccc(-c2ccc3cccnc3n2)cc1
- Intrinsic clearance (Liver microsomes): 0.28 nmol/min/mg
- IC50 (Succinate receptor 1 [2]): 17 nM

Structure (SMILES): CCc1cccc(-c2ccc(CNC(=O)CCCc3ccc4cccnc4n3)cc2)c1
- Intrinsic clearance (Liver microsomes): 0.4 nmol/min/mg
- IC50 (Succinate receptor 1 [2]): 65 nM

Structure (SMILES): O=C(CCCc1ccc2cccnc2n1)NCc1cc(-c2ccc(F)c(Cl)c2)no1
- Intrinsic clearance (Liver microsomes): 0.11 nmol/min/mg
- IC50 (Succinate receptor 1 [2]): 90 nM

Structure (SMILES): O=C(CCCc1ccc2cccnc2n1)NCc1ccc(-c2cccc(F)c2C(=O)O)cc1F
- Intrinsic clearance (Liver microsomes): 0.08 nmol/min/mg
- inhibition [1]: inactive

Structure (SMILES): Fc1ccc(-c2ccc(-c3nnc(CCCc4ccc5cccnc5n4)[nH]3)cc2)cc1Cl
- Intrinsic clearance (Liver microsomes): 0.14 nmol/min/mg
- IC50 (Succinate receptor 1 [2]): 1000 nM

Structure (SMILES): C[C@H](NC(=O)C(F)(F)c1ccc(-c2ccc3cccnc3n2)cc1)c1ccc(-c2ccc(F)c(C(F)(F)F)c2)cc1
- Intrinsic clearance (Liver microsomes): 0.14 nmol/min/mg
- IC50 (Succinate receptor 1 [2]): 19 nM

Structure (SMILES): COc1cccc(-c2ccc(CNC(=O)CCCc3ccc4cccnc4n3)cc2)c1
- Intrinsic clearance (Liver microsomes): 0.6 nmol/min/mg
- IC50 (Succinate receptor 1 [2]): 1000 nM

Structure (SMILES): O=C(CCCc1ccc2cccnc2n1)NCc1ccc(-c2ccc(F)c(Cl)c2)cc1
- Intrinsic clearance (Liver microsomes): 0.2 nmol/min/mg
- IC50 (Succinate receptor 1 [2]): 38 nM

Structure (SMILES): O=C(CCCc1ccc2cccnc2n1)NCc1ccc(-c2cccc(Cl)c2)cc1
- Intrinsic clearance (Liver microsomes): 0.22 nmol/min/mg
- IC50 (Succinate receptor 1 [3]): 115 nM
- Cmax [4]: 82.7 µM
- IC50 (Succinate receptor 1 [2]): 40 nM
- AUC(0-t) at 8 h [5]: 119 µM·h
- Tmax [6]: 3.3 h
- Cmax [7]: 17.8 µM
- clearance [8]: 4.4 mL/min/kg
- Vd [9]: 0.2 L/kg
- IC50 [10]: 7000 nM
- half-life [11]: 1.2 h
- concentration at 8 h [12]: 15 µM
